From the supplement of paper PMC10307832

Legend:
Assay in all cases: relative viability (nuclei count vs DMSO), 5 days (fraction); higher = more cells survive
Selumetinib + Pictilisib = compound: Cn1cnc2c(F)c(Nc3ccc(Br)cc3Cl)c(C(=O)NOCCO)cc21 [Selumetinib] + CS(=O)(=O)N1CCN(Cc2cc3nc(-c4cccc5[nH]ncc45)nc(N4CCOCC4)c3s2)CC1 [Pictilisib] (partner 1 µM)
Summary of the method: (§1)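 Lung cancer cell lines in 1536-well plates were dosed by pin tool the day after seeding, either with one drug alone or with a fixed anchor-drug dose plus five library-drug doses (not always all listed) in √10 steps. After 5 days, cells were fixed and their nuclei stained in one step (final 0.05% Triton X-100, 1% formaldehyde, 1 ug/ml Hoechst), then counted on 4× images. Relative viability is the nuclei count in treated wells divided by that in vehicle wells. Values are medians of duplicate plates.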

Venetoclax + Luminespib = compound: CC1(C)CCC(CN2CCN(c3ccc(C(=O)NS(=O)(=O)c4ccc(NCC5CCOCC5)c([N+](=O)[O-])c4)c(Oc4cnc5[nH]ccc5c4)c3)CC2)=C(c2ccc(Cl)cc2)C1 [Venetoclax] + CCNC(=O)c1noc(-c2cc(C(C)C)c(O)cc2O)c1-c1ccc(CN2CCOCC2)cc1 [Luminespib] (partner 0.01 µM)
Summary of the method: as §1

Venetoclax + Trametinib = compound: CC1(C)CCC(CN2CCN(c3ccc(C(=O)NS(=O)(=O)c4ccc(NCC5CCOCC5)c([N+](=O)[O-])c4)c(Oc4cnc5[nH]ccc5c4)c3)CC2)=C(c2ccc(Cl)cc2)C1 [Venetoclax] + CC(=O)Nc1cccc(-n2c(=O)n(C3CC3)c(=O)c3c(Nc4ccc(I)cc4F)n(C)c(=O)c(C)c32)c1 [Trametinib] (partner 0.02 µM)
Summary of the method: as §1

Selumetinib + Olaparib = compound: Cn1cnc2c(F)c(Nc3ccc(Br)cc3Cl)c(C(=O)NOCCO)cc21 [Selumetinib] + O=C(c1cc(Cc2n[nH]c(=O)c3ccccc23)ccc1F)N1CCN(C(=O)C2CC2)CC1 [Olaparib] (partner 8 µM)
Summary of the method: as §1

Cell Line	relative viability (Selumetinib + Pictilisib; first compound 0.02 µM)	relative viability (Selumetinib + Pictilisib; first compound 0.06325 µM)	relative viability (Selumetinib + Pictilisib; first compound 0.2 µM)	relative viability (Selumetinib + Pictilisib; first compound 0.6325 µM)	relative viability (Venetoclax + Luminespib; first compound 0.01 µM)	relative viability (Venetoclax + Luminespib; first compound 0.03162 µM)	relative viability (Venetoclax + Luminespib; first compound 0.1 µM)	relative viability (Venetoclax + Luminespib; first compound 0.3162 µM)	relative viability (Venetoclax + Luminespib; first compound 1 µM)	relative viability (Venetoclax + Trametinib; first compound 0.01 µM)	relative viability (Venetoclax + Trametinib; first compound 0.03162 µM)	relative viability (Venetoclax + Trametinib; first compound 0.1 µM)	relative viability (Venetoclax + Trametinib; first compound 0.3162 µM)	relative viability (Venetoclax + Trametinib; first compound 1 µM)	relative viability (Selumetinib + Olaparib; first compound 0.02 µM)	relative viability (Selumetinib + Olaparib; first compound 0.06325 µM)	relative viability (Selumetinib + Olaparib; first compound 0.2 µM)	relative viability (Selumetinib + Olaparib; first compound 0.6325 µM)
PC-14	0.723	0.551	0.548	0.519	0.175	0.122	0.15	0.153	0.154	0.679	0.726	0.726	0.642	0.645	0.294	0.226	0.252	0.241
RERF-LC-KJ	0.527	0.476	0.44	0.504	1.19	1.19	1.22	1.19	1.08	0.705	0.851	0.873	0.886	0.795	0.878	0.896	0.889	0.892
SK-LU-1	0.618	0.493	0.459	0.258	0.188	0.21	0.197	0.198	0.197	0.585	0.512	0.522	0.507	0.587	0.467	0.459	0.401	0.335
SK-MES-1	0.324	0.266	0.196	0.233	0.82	0.789	0.806	0.822	0.728	0.615	0.636	0.536	0.526	0.554	0.728	0.779	0.695	0.599
SW 1573	0.366	0.427	0.342	0.386	0.234	0.152	0.153	0.385	0.215	0.571	0.612	0.486	0.603	0.545	0.479	0.403	0.368	0.437
